Results: ChEMBL document CHEMBL4028802, “DILIrank: the largest reference drug list ranked by the risk for developing drug-induced liver injury in humans” (Drug Discov Today, 2016)
Positions of bridges follow the written chain, without caps; N, C: chain ends. Residues, ends and D or L forms follow the SMILES beside them.

What was measured:
[1] = organism: Homo sapiens; assay: Liver toxicity in human assessed as induction of drug-induced liver injury by measuring severity class index
[2] = organism: Homo sapiens; assay: Liver toxicity in human assessed as induction of drug-induced liver injury by measuring verified drug-induced liver injury concern status
Wherever DILI severity class is given: key of the grades not given here.

Compound | DILI_severity_class [1] | DILI_Concern [2]
CC[C@H]1OC(=O)[C@H](C)[C@@H](O[C@H]2C[C@@](C)(OC)[C@@H](O)[C@H](C)O2)[C@H](C)[C@@H](O[C@@H]2O[C@H](C)C[C@H](N(C)C)[C@H]2O)[C@](C)(OC)C[C@@H](C)C(=O)[C@H](C)[C@@H](O)[C@]1(C)O [CLARITHROMYCIN] | 8 | Most-Dili-Concern
O=C(O)CN(CCN(CC(=O)O)CC(=O)O)CC(=O)O [EDETIC ACID] | 3 | Ambiguous-Dili-Concern
COc1cccc2c1C(=O)c1c(O)c3c(c(O)c1C2=O)C[C@@](O)(C(C)=O)C[C@@H]3O[C@H]1C[C@H](N)[C@H](O)[C@H](C)O1 [DAUNORUBICIN] | 0 | No-Dili-Concern
Cc1ccsc1C(=CCCN1CCC[C@@H](C(=O)O)C1)c1sccc1C [TIAGABINE] | 3 | Ambiguous-Dili-Concern
CC1=C(/C=C/C(C)=C/C=C/C(C)=C/C(=O)O)C(C)(C)CCC1 [TRETINOIN] | 3 | Ambiguous-Dili-Concern
CC(C(=O)O)c1ccc(N2CC=CC2)c(Cl)c1 (stereo not given) [PIRPROFEN] | 8 | Most-Dili-Concern
CCN(CC)C(=O)C1(c2ccccc2)CC1CN (stereo not given) | 7 | Most-Dili-Concern
CCN(CC)CCNC(=O)c1ccc(N)cc1 [PROCAINAMIDE] | 4 | Less-Dili-Concern
CC[C@H]1OC(=O)[C@H](C)[C@@H](O[C@H]2C[C@@](C)(OC)[C@@H](O)[C@H](C)O2)[C@H](C)[C@@H](O[C@@H]2O[C@H](C)C[C@H](N(C)C)[C@H]2O)[C@](C)(O)C[C@@H](C)C(=O)[C@H](C)[C@@H](O)[C@]1(C)O [ERYTHROMYCIN] | 5 | Most-Dili-Concern
CC[C@H](C)C[C@H](C)CCCCCCCCC(=O)N[C@H]1C[C@@H](O)[C@@H](NCCN)NC(=O)[C@@H]2[C@@H](O)CCN2C(=O)[C@H]([C@H](O)CCN)NC(=O)[C@H]([C@H](O)[C@@H](O)c2ccc(O)cc2)NC(=O)[C@@H]2C[C@@H](O)CN2C(=O)[C@H]([C@@H](C)O)NC1=O [CASPOFUNGIN] | 7 | Ambiguous-Dili-Concern
COc1nc(N)nc2c1ncn2[C@@H]1O[C@H](CO)[C@@H](O)[C@@H]1O [NELARABINE] | 4 | Less-Dili-Concern
CCCCN1C(=O)[C@@H]([C@H](O)C2CCCCC2)NC(=O)C12CCN(Cc1ccc(Oc3ccc(C(=O)O)cc3)cc1)CC2 [APLAVIROC] | 8 | Most-Dili-Concern
CC[C@@H](CO)NC(=O)[C@@H]1C=C2c3cccc4[nH]cc(c34)C[C@H]2N(C)C1 [METHYLERGONOVINE] | 0 | No-Dili-Concern
O=C1CCc2cc(OCCCCc3nnnn3C3CCCCC3)ccc2N1 [CILOSTAZOL] | 5 | Ambiguous-Dili-Concern
CN1c2c(oc(=O)n(-c3ccccn3)c2=O)-c2ccccc2S1(=O)=O [DROXICAM] | 8 | Most-Dili-Concern
N[C@@H](Cc1cc(I)c(Oc2cc(I)c(O)c(I)c2)c(I)c1)C(=O)O [LEVOTHYROXINE] | 3 | Less-Dili-Concern
COC(=O)C1=C(C)NC(C)=C(C(=O)OCC(C)C)C1c1ccccc1[N+](=O)[O-] (stereo not given) [NISOLDIPINE] | 3 | Ambiguous-Dili-Concern
CC(C)CC(N(C)C)C1(c2ccc(Cl)cc2)CCC1 (stereo not given) [SIBUTRAMINE] | 4 | Less-Dili-Concern
CC(C)(C(=O)c1cccnc1)c1cccnc1 [METYRAPONE] | 0 | No-Dili-Concern
CC(C)CN(C[C@@H](O)[C@H](Cc1ccccc1)NC(=O)O[C@H]1CO[C@H]2OCC[C@H]21)S(=O)(=O)c1ccc(N)cc1 | 8 | Most-Dili-Concern

Compound | DILI_severity_class [1] | DILI_Concern [2]
CC(=O)[O-].CC(=O)[O-].[Ca+2] [CALCIUM ACETATE] | 0 | No-Dili-Concern
NCCCC[C@H](N[C@@H](CCc1ccccc1)C(=O)O)C(=O)N1CCC[C@H]1C(=O)O [LISINOPRIL ANHYDROUS] | 3 | Less-Dili-Concern
CN1CCN(C2=Nc3cc(Cl)ccc3Nc3ccccc32)CC1 [CLOZAPINE] | 5 | Most-Dili-Concern
O=C1NC(c2ccccc2)(c2ccccc2)C(=O)N1COP(=O)(O)O [FOSPHENYTOIN] | 8 | Most-Dili-Concern
Cn1c(CCCC(=O)O)nc2cc(N(CCCl)CCCl)ccc21 [BENDAMUSTINE] | 0 | No-Dili-Concern
CNC1(c2ccccc2Cl)CCCCC1=O (stereo not given) [KETAMINE] | 0 | Less-Dili-Concern
CC(=O)Oc1ccccc1C(=O)Nc1ncc([N+](=O)[O-])s1 [NITAZOXANIDE] | 0 | No-Dili-Concern
CN1C(=O)CC(C)(c2ccccc2)C1=O (stereo not given) [METHSUXIMIDE] | 0 | No-Dili-Concern
CCOC(=O)c1cncn1[C@H](C)c1ccccc1 [ETOMIDATE] | 0 | No-Dili-Concern
CCOC(=O)C1(c2ccccc2)CCN(CCC(C#N)(c2ccccc2)c2ccccc2)CC1 [DIPHENOXYLATE] | 0 | No-Dili-Concern
Cc1ccccc1C(OCCN(C)C)c1ccccc1 (stereo not given) [ORPHENADRINE] | 0 | No-Dili-Concern
CC(C)(CO)[C@@H](O)C(=O)NCCCO [DEXPANTHENOL] | 0 | No-Dili-Concern
CN(C)CCOC(c1ccc(Cl)cc1)c1ccccn1 (stereo not given) [CARBINOXAMINE] | 0 | No-Dili-Concern
Cc1cccc(Nc2ccncc2S(=O)(=O)NC(=O)NC(C)C)c1 [TORSEMIDE] | 2 | Ambiguous-Dili-Concern
COc1cc(C(=O)NS(=O)(=O)c2ccccc2C)ccc1Cc1cn(C)c2ccc(NC(=O)OC3CCCC3)cc12 [ZAFIRLUKAST] | 8 | Most-Dili-Concern
O=S(=O)([O-])CCS.[Na+] [MESNA] | 3 | Ambiguous-Dili-Concern
CC(C)(C(=O)O)c1ccc(C(O)CCCN2CCC(C(O)(c3ccccc3)c3ccccc3)CC2)cc1 (stereo not given) [FEXOFENADINE] | 0 | No-Dili-Concern
Clc1ccc(C(c2ccccc2Cl)C(Cl)Cl)cc1 (stereo not given) [MITOTANE] | 0 | No-Dili-Concern
O=C(O)c1ccc(-n2nc(-c3ccccc3O)nc2-c2ccccc2O)cc1 [DEFERASIROX] | 7 | Most-Dili-Concern
Cc1ncc([N+](=O)[O-])n1CCO [METRONIDAZOLE] | 3 | Less-Dili-Concern

Compound | DILI_severity_class [1] | DILI_Concern [2]
CC[C@H](C)[C@@H]1NC(=O)[C@H](Cc2ccc(O)cc2)NC(=O)[C@@H](N)CSSC[C@@H](C(=O)N2CCC[C@H]2C(=O)N[C@@H](CC(C)C)C(=O)NCC(N)=O)NC(=O)[C@H](CC(N)=O)NC(=O)[C@H]([C@@H](C)O)NC1=O (H-CYITNCPLG-NH2; disulfide 1-6) | 0 | No-Dili-Concern
CC(C)c1cccc(C(C)C)c1OCOP(=O)(O)O [FOSPROPOFOL] | 0 | Less-Dili-Concern
CC1(C)S[C@@H]2[C@H](NC(=O)COc3ccccc3)C(=O)N2[C@H]1C(=O)O [PENICILLIN V] | 0 | No-Dili-Concern
S=P(N1CC1)(N1CC1)N1CC1 [THIOTEPA] | 3 | Less-Dili-Concern
Cc1ccc(C)c(OCCCC(C)(C)C(=O)O)c1 [GEMFIBROZIL] | 4 | Most-Dili-Concern
CC(O)(P(=O)(O)O)P(=O)(O)O [ETIDRONIC ACID] | 0 | No-Dili-Concern
CN(C)CCC=C1c2ccccc2CCc2ccccc21 [AMITRIPTYLINE] | 5 | Less-Dili-Concern
CN1CCN2c3ncccc3Cc3ccccc3C2C1 (stereo not given) [MIRTAZAPINE] | 3 | Less-Dili-Concern
NC(=O)C[S@@+]([O-])C(c1ccccc1)c1ccccc1 [ARMODAFINIL] | 3 | Ambiguous-Dili-Concern
CCCCCN(C)CCC(O)(P(=O)(O)O)P(=O)(O)O [IBANDRONIC ACID] | 0 | No-Dili-Concern
CN1CCCC(CN2c3ccccc3Sc3ccccc32)C1 (stereo not given) [MEPAZINE] | 8 | Most-Dili-Concern
CN(C)CCOC(c1ccccc1)c1ccccc1 [DIPHENHYDRAMINE] | 0 | No-Dili-Concern
CNCCC(Oc1ccc(C(F)(F)F)cc1)c1ccccc1 (stereo not given) [FLUOXETINE] | 3 | Less-Dili-Concern
NS(=O)(=O)Cc1noc2ccccc12 [ZONISAMIDE] | 2 | Less-Dili-Concern
CC(O)C(=O)[O-].[Na+] (stereo not given) [SODIUM LACTATE] | 0 | No-Dili-Concern
COc1ccc2c3c1O[C@H]1C[C@@H](O)C=C[C@@]31CCN(C)C2 [GALANTAMINE] | 3 | Ambiguous-Dili-Concern
Cc1nc2n(c(=O)c1CCN1CCC(c3noc4cc(F)ccc34)CC1)CCCC2 [RISPERIDONE] | 3 | Less-Dili-Concern
CCCCc1oc2ccccc2c1C(=O)c1cc(I)c(OCCN(CC)CC)c(I)c1 [AMIODARONE] | 8 | Most-Dili-Concern
NC(=O)c1cn(Cc2c(F)cccc2F)nn1 [RUFINAMIDE] | 3 | Ambiguous-Dili-Concern
Cc1ccc(Nc2c(F)cccc2Cl)c(CC(=O)O)c1 [LUMIRACOXIB] | 8 | Most-Dili-Concern
